In patent US12552771B2, “Carboxylic acid containing azetidinyl compounds for the treatment of neurodegenerative diseases” (Celgene Corporation, priority 2021, dated 2026):

Target: T1, S1P5 receptors (Homo sapiens, UniProt Q9H228)
T1 construct: expressed in transfected cells; host or cells: CHO cells (membranes)
Assay: [35S]-GTPγS binding assay with CHO-S1P5 receptor membranes
Assay type: biochemical
Conditions: membranes of CHO cells expressing recombinant S1P5 receptors; measure of S1P5 agonism
Procedure: CHO cells expressing recombinant S1P5 receptors were cultured in 500 cm^2 culture trays and, once confluent, rinsed and detached with cell-lifting buffer (10 mM HEPES, 154 mM NaCl, 6.85 mM EDTA, pH 7.4). Cells were then pelleted by centrifugation, resuspended, and homogenized in membrane preparation buffer (10 mM HEPES and 10 mM EDTA, pH 7.4) using a Polytron PT 1200E homogenizer (Kinematica, Luzern, Switzerland). Cellular proteins were pelleted by centrifugation at 48,000×g at 4° C. for 30 minutes. The resulting supernatant was discarded, and the pellet was re-suspended again in membrane preparation buffer, homogenized for a second time, and then centrifuged again as described above. The final cellular protein pellet was suspended in ice cold resuspension buffer (10 mM HEPES and 0.1 mM EDTA, pH 7.4), divided into aliquots, and stored at −80° C. until use.
Functional binding assays for [^35]-GTPγS were performed in 96-well non-binding surface plates with a final volume of 200 μL. The test compounds were serially diluted in DMSO and added to assay plates using a Tecan D300E digital printer with a total volume of […]. The control sphingosine-1-phosphate (SiP) was prepared separately by preparing a 400 μM stock solution from a 100 nmol pellet of SiP in 10 mM Na2CO3 with 2% […]. The serial dilution of SiP was done using complete assay buffer (20 mM HEPES, 10 mM MgCl2, 100 mM NaCl, 1 mM EDTA, 0.1% fatty acid free bovine serum albumin (BSA), and 30 μg/mL saponin, pH 7.4) and transferred to wells already containing 0.4 μL DMSO. All the wells were then loaded to a total volume of 40 μL of complete assay buffer, except the non-specific binding (NSB) wells. For NSB wells, 40 μL/well of 50 μM GTPγS (Sigma Aldrich, cat #G8634, St. Louis, MO) was added to wells containing 0.4 μL of DMSO. The assay was started by the addition of 120 μL/well of CHO-S1P receptor membrane solution containing 40 μg/mL of membrane protein, 16.67 μM guanosine diphosphate (GDP; Sigma Aldrich, cat #G7127, St. Louis, MO), and 2.5 mg/mL of WGA PVT SPA beads in complete buffer. Assay plates were then sealed and incubated at room temperature with gentle agitation for 30 minutes. Next, 40 μL/well of 1 nM of [^35]-GTPγS (PerkinElmer, cat #NEG030X250UC, Waltham, MA) in basic assay buffer (20 mM HEPES, 10 mM MgCl2, 100 mM NaCl, and 1 mM EDTA, pH7.4) was added to the assay plates to yield a final concentration of 200 pM and the plates were further incubated for 40 minutes at room temperature with gentle agitation. The assay was terminated by centrifugation of the plates at 1000 rpm for 3 minutes using an Eppendorf 5810R centrifuge (Eppendorf, Hamburg, Germany) and G protein bound radioactivity was quantitated using a MicroBeta2 microplate scintillation counter (PerkinElmer, Waltham, MA). As G protein bound radioactivity directly correlates to receptor activation and coupling to the G protein, this assay is a measure of S1P5 agonism.

T1 sequence (Q9H228 whole entry): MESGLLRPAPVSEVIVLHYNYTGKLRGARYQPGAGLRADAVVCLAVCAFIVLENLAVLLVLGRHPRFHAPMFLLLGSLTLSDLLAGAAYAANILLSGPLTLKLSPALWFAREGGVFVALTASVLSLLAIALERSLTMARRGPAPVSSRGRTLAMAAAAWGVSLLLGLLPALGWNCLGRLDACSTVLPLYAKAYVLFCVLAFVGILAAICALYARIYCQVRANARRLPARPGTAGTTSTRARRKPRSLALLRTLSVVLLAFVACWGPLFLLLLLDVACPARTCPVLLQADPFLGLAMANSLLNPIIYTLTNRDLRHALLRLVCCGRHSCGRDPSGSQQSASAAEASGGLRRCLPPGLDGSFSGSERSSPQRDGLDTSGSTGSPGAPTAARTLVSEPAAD

SMILES | EC50
CC(C)(c1ccc(C2CN(c3c(Cl)cccc3Cl)C2)cc1)N1CCC(C(=O)O)CC1 [Compound 17, 1-(2-(4-(1-(2,6-dichlorophenyl)azetidin-3-yl)phenyl)propan-2-yl)piperidine-4-carboxylic acid] | ≤ 0.01 µM
Cc1cc(C2CN(c3c(Cl)cccc3Cl)C2)c(C)cc1CN1CCC(C(=O)O)CC1 [Compound 19, 1-(4-(1-(2,6-dichlorophenyl)azetidin-3-yl)-2,5-dimethylbenzyl)piperidine-4-carboxylic acid] | ≤ 0.01 µM
Cc1cc(CN2CCC(C(=O)O)CC2)cc(C)c1C1CN(c2c(Cl)cccc2Cl)C1 [Compound 20, 1-(4-(1-(2,6-dichlorophenyl)azetidin-3-yl)-3,5-dimethylbenzyl)piperidine-4-carboxylic acid] | ≤ 0.01 µM
O=C(O)C1CCN(Cc2ccc(C3CN(c4c(Cl)cccc4Cl)C3)nc2)CC1 [Compound 21, 1-((6-(1-(2,6-dichlorophenyl)azetidin-3-yl)pyridin-3-yl)methyl)piperidine-4-carboxylic acid] | 0.01 to 0.1 µM
O=C(O)C1CCN(Cc2ccc(C3CN(c4c(Cl)cccc4Cl)C3)c(F)c2)CC1 [Compound 22, 1-(4-(1-(2,6-dichlorophenyl)azetidin-3-yl)-3-fluorobenzyl)piperidine-4-carboxylic acid] | ≤ 0.01 µM
O=C(O)C1CCN(Cc2ccc(N3CC(c4c(F)cccc4F)C3)cc2)CC1 [Compound 27, 1-(4-(3-(2,6-difluorophenyl)azetidin-1-yl)benzyl)piperidine-4-carboxylic acid] | 0.1 to 1 µM
Cc1cc(N2CC(c3c(Cl)cccc3Cl)C2)cc(C)c1CN1CCC(C(=O)O)CC1 [Compound 28, 1-(4-(3-(2,6-dichlorophenyl)azetidin-1-yl)-2,6-dimethylbenzyl)piperidine-4-carboxylic acid] | ≤ 0.01 µM
O=C(O)C1CCN(Cc2ccc(N3CC(c4c(Cl)cccc4Cl)C3)cn2)CC1 [Compound 29, 1-((5-(3-(2,6-dichlorophenyl)azetidin-1-yl)pyridin-2-yl)methyl)piperidine-4-carboxylic acid] | 0.01 to 0.1 µM
Cc1cc(CN2CCC(C(=O)O)CC2)cc(C)c1N1CC(c2c(Cl)cccc2Cl)C1 [Compound 31, 1-(4-(3-(2,6-dichlorophenyl)azetidin-1-yl)-3,5-dimethylbenzyl)piperidine-4-carboxylic acid] | ≤ 0.01 µM
O=C(O)C1CCN(Cc2ccc(N3CC(c4c(Cl)cccc4Cl)C3)nc2)CC1 [Compound 32, 1-((6-(3-(2,6-dichlorophenyl)azetidin-1-yl)pyridin-3-yl)methyl)piperidine-4-carboxylic acid] | 0.01 to 0.1 µM
O=C(O)C1CCN(Cc2ccc(N3CC(c4c(Cl)cccc4Cl)C3)cc2F)CC1 [Compound 33, 1-(4-(3-(2,6-dichlorophenyl)azetidin-1-yl)-2-fluorobenzyl)piperidine-4-carboxylic acid] | 0.01 to 0.1 µM
Cc1cc(CN2CCC(C(=O)O)CC2)cc(C)c1N1CC(F)(c2c(Cl)cccc2Cl)C1 [Compound 36, 1-(4-(3-(2,6-dichlorophenyl)-3-fluoroazetidin-1-yl)-3,5-dimethylbenzyl)-piperidine-4-carboxylic acid] | 0.01 to 0.1 µM
Cc1cc(N2CC(F)(c3c(Cl)cccc3Cl)C2)cc(C)c1CN1CCC(C(=O)O)CC1 [Compound 37, 1-(4-(3-(2,6-dichlorophenyl)-3-fluoroazetidin-1-yl)-2,6-dimethylbenzyl)-piperidine-4-carboxylic acid] | 0.01 to 0.1 µM
O=C(O)C1CCN(Cc2ccc(C3CN(c4cccc(F)c4)C3)cc2)CC1 [Compound 41, 1-(4-(1-(3-fluorophenyl)azetidin-3-yl)benzyl)piperidine-4-carboxylic acid] | 1 to 10 µM
O=C(O)C1CCN(Cc2ccc(C3CN(c4ccc(C5CC5)c(Cl)c4)C3)cc2)CC1 [Compound 42, 1-(4-(1-(3-chloro-4-cyclopropylphenyl)azetidin-3-yl)benzyl)piperidine-4-carboxylic acid] | 0.1 to 1 µM
O=C(O)C1CCN(Cc2ccc(C3CN(c4ccc(C5CC5)cc4)C3)cc2)CC1 [Compound 43, 1-(4-(1-(4-cyclopropylphenyl)azetidin-3-yl)benzyl)piperidine-4-carboxylic acid] | 1 to 10 µM
Cc1cc(C2CN(c3c(F)cccc3F)C2)cc(C)c1CN1CCC(C(=O)O)CC1 [Compound 44, 1-(4-(1-(2,6-difluorophenyl)azetidin-3-yl)-2,6-dimethylbenzyl)piperidine-4-carboxylic acid] | 0.01 to 0.1 µM
Cc1cc(C2CN(c3ccccc3)C2)cc(C)c1CN1CCC(C(=O)O)CC1 [Compound 45, 1-(2,6-dimethyl-4-(1-phenylazetidin-3-yl)benzyl)piperidine-4-carboxylic acid] | 0.1 to 1 µM
Cc1cc(C2CN(c3cccc(F)c3)C2)cc(C)c1CN1CCC(C(=O)O)CC1 [Compound 47, 1-(4-(1-(3-fluorophenyl)azetidin-3-yl)-2,6-dimethylbenzyl)piperidine-4-carboxylic acid] | 0.1 to 1 µM
Cc1cc(C2CN(c3ccc(C4CC4)c(Cl)c3)C2)cc(C)c1CN1CCC(C(=O)O)CC1 [Compound 49, 1-(4-(1-(3-chloro-4-cyclopropylphenyl)azetidin-3-yl)-2,6-dimethylbenzyl)-piperidine-4-carboxylic acid] | 0.1 to 1 µM
Cc1cc(C2CN(c3c(Cl)cccc3Cl)C2)cc(F)c1CN1CCC(C(=O)O)CC1 [Compound 50, 1-(4-(1-(2,6-dichlorophenyl)azetidin-3-yl)-2-fluoro-6-methylbenzyl)-piperidine-4-carboxylic acid] | ≤ 0.01 µM

Next, values leading:

EC50 | SMILES
0.1 to 1 µM | O=C(O)C1CCN(Cc2ccc(C3CN(c4c(Cl)cccc4Cl)C3)cn2)CC1 [Compound 18, 1-((5-(1-(2,6-dichlorophenyl)azetidin-3-yl)pyridin-2-yl)methyl)piperidine-4-carboxylic acid]
≤ 0.01 µM | O=C(O)C1CCN(Cc2ccc(C3CN(c4c(Cl)cccc4Cl)C3)cc2F)CC1 [Compound 23, 1-(4-(1-(2,6-dichlorophenyl)azetidin-3-yl)-2-fluorobenzyl)piperidine-4-carboxylic acid]
0.01 to 0.1 µM | O=C(O)C1CCN(Cc2ccc(N3CC(c4c(Cl)cccc4Cl)C3)cc2)CC1 [Compound 24, 1-(4-(3-(2,6-dichlorophenyl)azetidin-1-yl)benzyl)piperidine-4-carboxylic acid]
≤ 0.01 µM | Cc1cc(N2CC(c3c(Cl)cccc3Cl)C2)c(C)cc1CN1CCC(C(=O)O)CC1 [Compound 30, 1-(4-(3-(2,6-dichlorophenyl)azetidin-1-yl)-2,5-dimethylbenzyl)piperidine-4-carboxylic acid]
≤ 0.01 µM | O=C(O)C1CCN(Cc2ccc(N3CC(c4c(Cl)cccc4Cl)C3)c(F)c2)CC1 [Compound 34, 1-(4-(3-(2,6-dichlorophenyl)azetidin-1-yl)-3-fluorobenzyl)piperidine-4-carboxylic acid]
1 to 10 µM | O=C(O)C1CCN(Cc2ccc(N3CC(F)(c4c(Cl)cccc4Cl)C3)cc2)CC1 [Compound 35, 1-(4-(3-(2,6-dichlorophenyl)-3-fluoroazetidin-1-yl)benzyl)piperidine-4-carboxylic acid]
1 to 10 µM | O=C(O)C1CCN(Cc2ccc(C3CN(c4ccccc4)C3)cc2)CC1 [Compound 39, 1-(4-(1-phenylazetidin-3-yl)benzyl)piperidine-4-carboxylic acid]
0.1 to 1 µM | O=C(O)C1CCN(Cc2ccc(C3CN(c4ccccc4F)C3)cc2)CC1 [Compound 40, 1-(4-(1-(2-fluorophenyl)azetidin-3-yl)benzyl)piperidine-4-carboxylic acid]
0.01 to 0.1 µM | Cc1cc(C2CN(c3ccccc3F)C2)cc(C)c1CN1CCC(C(=O)O)CC1 [Compound 46, 1-(4-(1-(2-fluorophenyl)azetidin-3-yl)-2,6-dimethylbenzyl)piperidine-4-carboxylic acid]
1 to 10 µM | Cc1cc(C2CN(c3ccc(C4CC4)cc3)C2)cc(C)c1CN1CCC(C(=O)O)CC1 [Compound 48, 1-(4-(1-(4-cyclopropylphenyl)azetidin-3-yl)-2,6-dimethylbenzyl)piperidine-4-carboxylic acid]
